Experimental data: patent publication US11802111B2, “Cyclobutyl amide monoacylglycerol lipase modulators” (Janssen Pharmaceutica NV, priority 2020, dated 2023)

biological target: human MGL from HeLa cells (Homo sapiens (Human), UniProt Q99685); test: MGL in vitro activity assay ([glycerol-1,3-3H]-oleoyl glycerol hydrolysis, activated carbon filtration); format: biochemical; settings: 300 nM [Glycerol-1,3-3H]-oleoyl glycerol, one hour
Procedure: The assay used to measure the in vitro activity of MGL is adapted from the assay used for another serine hydrolase (FAAH) described in Wilson et al., 2003 (A high-throughput-compatible assay for determining the activity of fatty acid amide hydrolase. Wilson S J, Lovenberg T W, Barbier A J. Anal Biochem. 2003 Jul. 15; 318(2):270-5). The assay consists of combining endogenously expressed MGL from HeLa cells with test compounds, adding [glycerol-1,3-^3H]-oleyl glycerol, incubating for one hour, and then measuring the amount of cleaved [1,3-^3H]-glycerol that passes through an activated carbon filter. The amount of cleaved, tritiated glycerol passing through the carbon filter is proportional to the activity of the MGL enzyme in a particular well/test condition.
Standard conditions for this assay combine 300 nM [Glycerol-1,3-^3H]-oleoyl glycerol with human MGL from HeLa cells and test compounds for one hour, after which the reaction is filtered through activated carbon and tritium is measured in the flow through. The test compound concentration in screening mode is 10 μM, while the highest compound concentration in IC50 assays is determined empirically. MGL is the predominant hydrolase in HeLa cells/cell homogenates.

Sequence of human MGL from HeLa cells (Q99685 whole entry): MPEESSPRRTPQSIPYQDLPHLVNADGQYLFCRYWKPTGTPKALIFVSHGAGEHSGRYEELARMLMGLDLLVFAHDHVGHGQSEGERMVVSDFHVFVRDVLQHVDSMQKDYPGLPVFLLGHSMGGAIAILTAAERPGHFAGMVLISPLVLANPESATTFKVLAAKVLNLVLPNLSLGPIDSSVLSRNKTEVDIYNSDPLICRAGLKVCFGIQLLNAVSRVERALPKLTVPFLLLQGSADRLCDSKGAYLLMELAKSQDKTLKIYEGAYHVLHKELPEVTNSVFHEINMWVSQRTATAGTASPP

IC50 [nM]	Compound
10	Cc1c(C2CCC3(C2)CN(C(=O)[C@H]2C[C@@](C)(O)C2)C3)cccc1C(F)(F)F (mixture of isomers) [Example 7, (rac)-((1s,3s)-3-Hydroxy-3-methylcyclobutyl)(6-(2-methyl-3-(trifluoromethyl)phenyl)-2-azaspiro[3.4]octan-2-yl)methanone]
5	Cc1cc(C(F)(F)F)ccc1C1CCC2(C1)CN(C(=O)[C@H]1C[C@@](C)(O)C1)C2 (mixture of isomers) [Example 8, (rac)-((1s,3s)-3-Hydroxy-3-methylcyclobutyl)(6-(2-methyl-4-(trifluoromethyl)phenyl)-2-azaspiro[3.4]octan-2-yl)methanone]
23	C[C@]1(O)C[C@@H](C(=O)N2CC3(CCC(c4cccc(OC(F)(F)F)c4)C3)C2)C1 (mixture of isomers) [Example 40, (rac)-((1s,3s)-3-Hydroxy-3-methylcyclobutyl)(6-(3-(trifluoromethoxy)phenyl)-2-azaspiro[3.4]octan-2-yl)methanone]
6.9	CC(C)(C)c1cccc(C2CCC3(C2)CN(C(=O)[C@H]2C[C@@](C)(O)C2)C3)c1 (mixture of isomers) [Example 43, (rac)-(6-(3-(tert-Butyl)phenyl)-2-azaspiro[3.4]octan-2-yl)((1s,3s)-3-hydroxy-3-methylcyclobutyl)methanone]
13	CC(C)c1cccc(C2CCC3(C2)CN(C(=O)[C@H]2C[C@@](C)(O)C2)C3)c1 (mixture of isomers) [Example 46, (rac)-((1s,3s)-3-Hydroxy-3-methylcyclobutyl)(6-(3-isopropylphenyl)-2-azaspiro[3.4]octan-2-yl)methanone]
16	C[C@]1(O)C[C@@H](C(=O)N2CC3(CCC(c4ccc(OC(F)(F)F)cc4)C3)C2)C1 (mixture of isomers) [Example 52, (rac)-((1s,3s)-3-Hydroxy-3-methylcyclobutyl)(6-(4-(trifluoromethoxy)phenyl)-2-azaspiro[3.4]octan-2-yl)methanone]
22	C[C@]1(O)C[C@@H](C(=O)N2CC3(CCC(c4ccc(C(F)(F)F)cc4)C3)C2)C1 (mixture of isomers) [Example 55, (rac)-((1s,3s)-3-Hydroxy-3-methylcyclobutyl)(6-(4-(trifluoromethyl)phenyl)-2-azaspiro[3.4]octan-2-yl)methanone]
41	C[C@]1(O)C[C@@H](C(=O)N2CC3(CCC(c4cccc(C5CC5)c4)C3)C2)C1 (mixture of isomers) [Example 58, (rac)-(6-(3-Cyclopropylphenyl)-2-azaspiro[3.4]octan-2-yl)((1s,3s)-3-hydroxy-3-methylcyclobutyl)methanone]
29	C[C@]1(O)C[C@@H](C(=O)N2CC3(CCC(c4cccc(C(F)(F)F)c4)C3)C2)C1 (mixture of isomers) [Example 61, (rac)-((1s,3s)-3-Hydroxy-3-methylcyclobutyl)(6-(3-(trifluoromethyl)phenyl)-2-azaspiro[3.4]octan-2-yl)methanone]
11	Cc1ccc(C2CCC3(C2)CN(C(=O)[C@H]2C[C@@](C)(O)C2)C3)cc1C(F)(F)F (mixture of isomers) [Example 65, (rac)-((1s,3s)-3-Hydroxy-3-methylcyclobutyl)(6-(4-methyl-3-(trifluoromethyl)phenyl)-2-azaspiro[3.4]octan-2-yl)methanone]
0.5	Cc1cc(C2CCC3(C2)CN(C(=O)[C@H]2C[C@@](C)(O)C2)C3)ccc1OC(F)(F)F (mixture of isomers) [Example 66, (rac)-((1s,3s)-3-Hydroxy-3-methylcyclobutyl)(6-(3-methyl-4-(trifluoromethoxy)phenyl)-2-azaspiro[3.4]octan-2-yl)methanone]
1.7	Cc1cc(C2CCC3(C2)CN(C(=O)[C@H]2C[C@@](C)(O)C2)C3)ccc1C(F)(F)F (mixture of isomers) [Example 67, (rac)-((1s,3s)-3-Hydroxy-3-methylcyclobutyl)(6-(3-methyl-4-(trifluoromethyl)phenyl)-2-azaspiro[3.4]octan-2-yl)methanone]

Second part, the compound before the results:

Compound	IC50 [nM]
Cc1cc(OC(F)(F)F)ccc1C1CCC2(C1)CN(C(=O)[C@H]1C[C@@](C)(O)C1)C2 (mixture of isomers) [Example 9, (rac)-((1s,3s)-3-Hydroxy-3-methylcyclobutyl)(6-(2-methyl-4-(trifluoromethoxy)phenyl)-2-azaspiro[3.4]octan-2-yl)methanonemethanone]	3.4
Cc1cc(Cl)ccc1C1CCC2(C1)CN(C(=O)[C@H]1C[C@@](C)(O)C1)C2 (mixture of isomers) [Example 10, (rac)-(6-(4-Chloro-2-methylphenyl)-2-azaspiro[3.4]octan-2-yl)((1s,3s)-3-hydroxy-3-methylcyclobutyl)methanone]	22
Cc1c(Cl)cccc1C1CCC2(C1)CN(C(=O)[C@H]1C[C@@](C)(O)C1)C2 (mixture of isomers) [Example 11, (rac)-(6-(3-Chloro-2-methylphenyl)-2-azaspiro[3.4]octan-2-yl)((1s,3s)-3-hydroxy-3-methylcyclobutyl)methanone]	37
Cc1cc(C2CCC3(C2)CN(C(=O)[C@H]2C[C@@](C)(O)C2)C3)ccc1C(F)F (mixture of isomers) [Example 12, (rac)-(6-(4-(Difluoromethyl)-3-methylphenyl)-2-azaspiro[3.4]octan-2-yl)((1s,3s)-3-hydroxy-3-methylcyclobutyl)methanone]	25
COc1cccc(C2CCC3(C2)CN(C(=O)[C@H]2C[C@@](C)(O)C2)C3)c1C (mixture of isomers) [Example 13, (rac)-((1s,3s)-3-Hydroxy-3-methylcyclobutyl)(6-(3-methoxy-2-methylphenyl)-2-azaspiro[3.4]octan-2-yl)methanone]	159
Cc1ccc(C2CCC3(C2)CN(C(=O)[C@H]2C[C@@](C)(O)C2)C3)c(C)c1 (mixture of isomers) [Example 14, (rac)-(6-(2,4-Dimethylphenyl)-2-azaspiro[3.4]octan-2-yl)((1s,3s)-3-hydroxy-3-methylcyclobutyl)methanone]	26
CCc1cc(C2CCC3(C2)CN(C(=O)[C@H]2C[C@@](C)(O)C2)C3)ccc1Cl (mixture of isomers) [Example 15, (rac)-(6-(4-Chloro-3-ethylphenyl)-2-azaspiro[3.4]octan-2-yl)((1s,3s)-3-hydroxy-3-methylcyclobutyl)methanone]	6
C[C@]1(O)C[C@@H](C(=O)N2CC3(CCC(c4ccc5c(c4)CCC5)C3)C2)C1 (mixture of isomers) [Example 16, (rac)-(6-(2,3-Dihydro-1H-inden-5-yl)-2-azaspiro[3.4]octan-2-yl)((1s,3s)-3-hydroxy-3-methylcyclobutyl)methanone]	10
COc1cc(C2CCC3(C2)CN(C(=O)[C@H]2C[C@@](C)(O)C2)C3)ccc1C (mixture of isomers) [Example 17, (rac)-((1s,3s)-3-Hydroxy-3-methylcyclobutyl)(6-(3-methoxy-4-methylphenyl)-2-azaspiro[3.4]octan-2-yl)methanone]	46
C[C@]1(O)C[C@@H](C(=O)N2CC3(CCC(c4cccc(C5CC5)c4F)C3)C2)C1 (mixture of isomers) [Example 24, (rac)-(6-(3-Cyclopropyl-2-fluorophenyl)-2-azaspiro[3.4]octan-2-yl)((1s,3s)-3-hydroxy-3-methylcyclobutyl)methanone]	11
CC(C)(C)c1cccc(C2CCC3(C2)CN(C(=O)[C@H]2C[C@@](C)(O)C2)C3)n1 (mixture of isomers) [Example 29, (rac)-(6-(6-(tert-Butyl)pyridin-2-yl)-2-azaspiro[3.4]octan-2-yl)((1s,3s)-3-hydroxy-3-methylcyclobutyl)methanone]	7.7
CC(C)c1ccc(C2CCC3(C2)CN(C(=O)[C@H]2C[C@@](C)(O)C2)C3)cc1 (mixture of isomers) [Example 35, (rac)-((1s,3s)-3-Hydroxy-3-methylcyclobutyl)(6-(4-isopropylphenyl)-2-azaspiro[3.4]octan-2-yl)methanone]	15
CC(C)(C)c1cccc(C2CCC3(CCN(C(=O)[C@H]4C[C@@](C)(O)C4)CC3)C2)c1 (mixture of isomers) [Example 38, (rac)-(2-(3-(tert-Butyl)phenyl)-8-azaspiro[4.5]decan-8-yl)((1s,3s)-3-hydroxy-3-methylcyclobutyl)methanone]	20
CC(C)(C)c1ccc(C2CCC3(CCN(C(=O)[C@H]4C[C@@](C)(O)C4)CC3)C2)cc1 (mixture of isomers) [Example 39, (rac)-(2-(4-(tert-Butyl)phenyl)-8-azaspiro[4.5]decan-8-yl)((1s,3s)-3-hydroxy-3-methylcyclobutyl)methanone]	18
C[C@]1(O)C[C@@H](C(=O)N2CC3(CCC(c4ccc(C5CC5)cc4)C3)C2)C1 (mixture of isomers) [Example 49, (rac)-(6-(4-Cyclopropylphenyl)-2-azaspiro[3.4]octan-2-yl)((1s,3s)-3-hydroxy-3-methylcyclobutyl)methanone]	14
C[C@]1(O)C[C@@H](C(=O)N2CC3(CCC(c4cccc(C5CCC5)c4)C3)C2)C1 (mixture of isomers) [Example 64, (rac)-(6-(3-Cyclobutylphenyl)-2-azaspiro[3.4]octan-2-yl)((1s,3s)-3-hydroxy-3-methylcyclobutyl)methanone]	14
Cc1cc(C2CCC3(C2)CN(C(=O)[C@H]2C[C@@](C)(O)C2)C3)ccc1Cl (mixture of isomers) [Example 68, (rac)-(6-(4-Chloro-3-methylphenyl)-2-azaspiro[3.4]octan-2-yl)((1s,3s)-3-hydroxy-3-methylcyclobutyl)methanone]	12
Cc1ccc(C2CCC3(C2)CN(C(=O)[C@H]2C[C@@](C)(O)C2)C3)cc1Cl (mixture of isomers) [Example 71, (rac)-(6-(3-Chloro-4-methylphenyl)-2-azaspiro[3.4]octan-2-yl)((1s,3s)-3-hydroxy-3-methylcyclobutyl)methanone]	15
